This is an account of results in article PMC6530635, “A Novel Single-Site Mutation in the Catalytic Domain of Protoporphyrinogen Oxidase IX (PPO) Confers Resistance to PPO-Inhibiting Herbicides” (Frontiers in Plant Science, 2019).

For assay [1], the system named is Amaranthus palmeri MIS-D population. Further details: method as in Salas-Perez et al., 2017. The settings on record: ref Salas-Perez et al., 2017, cited from earlier work; for Response of MIS-D to 1X dose / Frequency of resistant plants: MIS-D field population.
Assay [2] addresses recombinant Amaranthus tuberculatus PPO2 wild-type enzyme (Amaranthus tuberculatus, UniProt Q0NZW9). The assay can be described thus: biochemical.
Assay [3] relates to Amaranthus palmeri R39P population. The format is in vivo. The note with it: for Frequency of resistant plants: R39P F1 population, 2X recommended dose, 21 DAT, 25 seedlings.
Assay [4] concerns Amaranthus palmeri (Palmer amaranth) populations MIS-D, R39P, R43P and SS. It is filed as in vivo. The settings on record: visual injury 21 DAT, foliar spray.

Read-outs that look alike come from different tables or passages of the source.

Chain of recombinant Amaranthus tuberculatus PPO2 wild-type enzyme (Q0NZW9 1-534): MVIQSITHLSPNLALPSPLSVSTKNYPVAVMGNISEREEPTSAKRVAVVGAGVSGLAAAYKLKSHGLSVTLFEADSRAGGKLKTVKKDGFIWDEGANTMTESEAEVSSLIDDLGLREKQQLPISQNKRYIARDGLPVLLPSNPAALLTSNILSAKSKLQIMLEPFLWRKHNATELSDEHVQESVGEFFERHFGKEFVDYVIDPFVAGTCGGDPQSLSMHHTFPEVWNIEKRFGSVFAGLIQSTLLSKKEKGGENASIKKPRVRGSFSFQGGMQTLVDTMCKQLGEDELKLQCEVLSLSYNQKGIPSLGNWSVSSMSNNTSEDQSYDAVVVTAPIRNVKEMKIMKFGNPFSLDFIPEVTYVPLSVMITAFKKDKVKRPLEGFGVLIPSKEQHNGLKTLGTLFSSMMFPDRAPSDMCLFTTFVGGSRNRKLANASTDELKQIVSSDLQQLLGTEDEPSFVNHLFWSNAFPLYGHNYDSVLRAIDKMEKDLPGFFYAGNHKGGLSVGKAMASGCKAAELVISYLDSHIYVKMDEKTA

For orientation: IC50 means the point on the concentration scale where inhibition reaches its midpoint. Regarding `Cc1nn(-c2cc(CC(Cl)C(=O)O)c(Cl)cc2F)c(=O)n1C(F)F` (stereo not shown) [Carfentrazone], in assay [1], the “Response of MIS-D to 1X dose” value is “resistant”. The half-inhibitory concentration (IC50) in assay [2] was found to be 0.196 nM. For the same molecule, the “Frequency of resistant plants” value in assay [3] is on record as 64%; in assay [3] (listed as carfentrazone) it was at least 40%.

Turning to `C#CCN(C)c1c(C#N)cnn1-c1nn2c(c1Cl)CCCC2` [Pyraclonil], the IC50 in assay [2] (read-out: Wild type sensitivity [IC50]) stood at 1.39 nM.

Regarding `C=CCOC(=O)C(C)(C)OC(=O)c1cc(-n2c(=O)cc(C(F)(F)F)n(C)c2=O)ccc1Cl` [Butafenacil], the IC50 in assay [2] was 0.00896 nM.

Take `C#CCN1C(=O)COc2cc(F)c(N3C(=O)C4=C(CCCC4)C3=O)cc21` [Flumioxazin]: the “Response of MIS-D to 1X dose” value in assay [1] is reported as “resistant”. Besides, the results for the “Frequency of resistant plants” value in assay [1] (1X dose), in assay [3] and in assay [3] (listed as flumioxazin) were 40%, 60% and at least 40%, respectively. The IC50 in assay [2] is 0.039 nM.

As to `CCOc1cc(Oc2ccc(C(F)(F)F)cc2Cl)ccc1[N+](=O)[O-]` [Oxyfluorfen], the IC50 in assay [2] came to 0.0342 nM.

In the case of `Cc1nn(-c2cc(NS(C)(=O)=O)c(Cl)cc2Cl)c(=O)n1C(F)F` [Sulfentrazone], the IC50 in assay [2] turned out to be 17.5 nM.

Regarding `CCOC(=O)C(C)OC(=O)c1cc(Oc2ccc(C(F)(F)F)cc2Cl)ccc1[N+](=O)[O-]` (stereo not shown) [Lactofen], in assay [1], the “Response of MIS-D to 1X dose” value was “resistant”. The “Frequency of resistant plants” value in assay [1] (1X dose) is listed as 23%; in assay [3] it was 40%; in assay [3] (listed as lactofen), at least 40%. The IC50 in assay [2] came out at 0.056 nM.

`CCOC(=O)COc1cc(-c2nn(C)c(OC(F)F)c2Cl)c(F)cc1Cl` [Pyraflufen-ethyl]: the “Response of MIS-D to 1X dose” value in assay [1] was “resistant”. The 50% inhibitory concentration (IC50) in assay [2] was 0.0519 nM.

`CC(C)N(C)S(=O)(=O)NC(=O)c1cc(-n2c(=O)cc(C(F)(F)F)n(C)c2=O)c(F)cc1Cl` [Saflufenacil] registered a Survival rate in assay [3] (in vivo) below 20%.

On to `CC(C)Oc1cc(-n2nc(C(C)(C)C)oc2=O)c(Cl)cc1Cl` [Oxadiazon], for which the IC50 in assay [2] came to 0.7 nM.

Take `COC(=O)CSc1cc(/N=c2\sc(=O)n3n2CCCC3)c(F)cc1Cl` [Fluthiacet-methyl]: the “Response of MIS-D to 1X dose” value in assay [1] was “resistant”. Further, the IC50 in assay [2] was determined as 0.669 nM.

Take `CS(=O)(=O)NC(=O)c1cc(Oc2ccc(C(F)(F)F)cc2Cl)ccc1[N+](=O)[O-]` [Fomesafen]: the “Response of MIS-D to 1X dose” value in assay [1] was “resistant”. Further, the “Frequency of resistant plants” value in assay [1] (1X dose) is 42%. The IC50 in assay [2] stood at 1.32 nM. The “ED50 (dose causing 50% herbicide injury)” value is 124 (101–147) g ai ha^-1 in assay [4] (MIS-D field population, PPO-resistant); 143 (122–165) g ai ha^-1 in assay [4] (R39P F1 population, PPO-resistant); 187 (174–202) g ai ha^-1 in assay [4] (R43P F1 population, PPO-resistant); 12 (10–13) g ai ha^-1 in assay [4] (SS population, PPO-sensitive). This molecule also came in with a Survival rate in assay [3] (R39P, 2X dose) below 20%.

On to `O=C(O)c1cc(Oc2ccc(C(F)(F)F)cc2Cl)ccc1[N+](=O)[O-]` [Acifluorfen], for which the “Frequency of resistant plants” value was 1% in assay [1] (1X dose) and 8% in assay [3]. The Mortality in assay [1] (MIS-D, 1X dose) is listed as above 90%. For the same molecule, the IC50 in assay [2] is 18.5 nM. This molecule registered a Survival rate in assay [3] (in vivo) below 20%.
